For two compounds, IC50 results are on record in patent US10316037B1, “Compounds and methods for treating cancer” (YALE UNIVERSITY, priority 2016, dated 2019).

For this assay, the system named is cancer cell lines. The assay can be described thus: Anti-cancer activity, CellTiter-Glo luminescence after 72 hours compound treatment. In kind it is cell-based. As to conditions: cell line not stated, 4-parameter fit inflection point (IC50). The protocol: Compounds to be tested for anti-cancer activity were submitted dry, dissolved to 10 mM stocks in DMSO, and stored protected from light at −80° C. until use. DMSO vehicle control wells, and 3 fold serial dilutions of compounds from 10 mM to 6.2 nM were prepared in 384 well plates. Kinamycin and tamoxifen were also added as controls in this manner.
LN2 aliquots of cancer cells (indicated in the tables of FIGS. 3 and 4) were cultured at YCMD and plated in Corning 3707 TC plates at 400 cells/well initial seeding density in 20 uL of growth medium. Cells were incubated overnight at 37′C in a humidified 5% CO2 incubator, and treated with compounds.
20 nL of compound was dispensed into the assay plates using a 384-well pin tool on the Tecan Aquarius. Final assay compound treatments ranged from 10 uM to 6.2 pM, 0.1% DMSO. […]
For assay readout CellTiter-Glo (Promega) was prepared according to manufacturer's instructions and 20 uL/well was added to assay plates using a MultiDrop. Luminescence was read on an Envision plate reader (Perkin Elmer) with 0.3 second sampling time per well after a 10 min. room temperature incubation in the dark.
Toxic effects have low luminescence signal relative to the vehicle control […]. Raw data (luminescence counts per second) were normalized to percent effect by the formula: […]. […]
On the technique in general: ATP-based viability assays read luminescence as a measure of living cells.

For the compound `C[C@H](N)CCc1c2c(cc(=O)n1Cc1nc(-c3nc(C(=O)NCCN(C)C)cs3)cs1)C1(CC1)NC2=O` [compound 17a], the IC50 came out at 35 nM.

Turning to `CSCCCNC(=O)c1csc(-c2csc(Cn3c(CC[C@H](C)NC(=O)OC(C)(C)C)c4c(cc3=O)C3(CC3)NC4=O)n2)n1` [compound S4], inhibition was half-maximal at 11 nM (IC50).

Broadly, the IC50 is the concentration at which inhibition is half-maximal.
